Test: Inhibition of Src protein tyrosine kinase

IC50: > 10 µM
Structure (SMILES): COCCOc1cc2nc3ncnc(Nc4cc(OC)c(Cl)cc4Cl)c3cc2cc1OC [(2,4-Dichloro-5-methoxy-phenyl)-[7-methoxy-8-(2-methoxy-ethoxy)-pyrimido[4,5-b]quinolin-4-yl]-amine]
